From paper PMC6267684, “Pharmacokinetic evaluation of the PNC disassembler metarrestin in wild-type and Pdx1-Cre;LSL-Kras^G12D/+;Tp53^R172H/+ (KPC) mice, a genetically engineered model of pancreatic cancer” (Cancer Chemotherapy and Pharmacology, 2018)
Where two headings read alike, the source gives them in different places.

Experiments:
[1] = Pharmacokinetics in C57BL/6 mice after single IV and PO administration; format: in vivo; settings: for Kp: liver/plasma, read-out: AUC0–∞ ratio (tissue/plasma); for AUC(0-t): read-out: AUC0–24h
Experimental: For pharmacokinetic studies, metarrestin solutions prepared in 30% PEG-400 and 70% (20% w:v HP-β-CD in water) solution were administered to C57BL/6 mice at 3 mg/kg IV via tail vein injection, or 3 and 10 mg/kg orally via gavage. KPC mice were additionally treated with 25 mg/kg PO via gavage. The dosing volume was 3 mL/kg for IV route and 10 mL/kg for PO route. Dosing solutions were prepared on the day of administration. Blood samples were collected at 10, 20 min, 1, 2, 4, 7 and 24 h after 3 mg/kg IV administration. After oral administration of 3 and 10 mg/kg in C57BL6 mice, blood and liver samples were collected at 10 min, 0.5, 1, 2, 3, 5, 7, 9 and 24 h post dosing (n = 3 per time point). In KPC mice, blood, pancreatic tumor, spleen and liver samples were collected at 1, 2, 3, 6, 9, 12 and 24 h after 25 mg/kg PO administration.
Blood samples were collected in K2EDTA tubes and plasma was harvested after centrifugation at 3000 rpm for 10 min. Tissue samples were weighed and flash-frozen for PK and PD mRNA expression analyses, embedded into OCT blocks for PNC determination and processed into FFPE blocks for histopathology assessment. All PK samples were stored at − 80 °C until analysis.
An ultra-performance liquid chromatography–tandem mass spectrometry (UPLC–MS/MS) method was developed to determine metarrestin concentrations in plasma and tissue samples. Mass spectrometric analysis was performed on a Waters Xevo TQ-S triple quadrupole instrument using electrospray ionization in positive mode. The separation was performed on an Acquity BEH C18 column (50 × 2.1 mm, 1.7 µ) using a Waters Acquity UPLC system with 0.6 mL/min flow rate and gradient elution. Mobile phase A was 0.1% formic acid in water, and B was 0.1% formic acid in acetonitrile (ACN). The column temperature was maintained at 60 °C. The calibration standards and quality control (QC) samples were prepared in the control blank mouse plasma and tissue homogenate. Tissues were homogenized with 3 or 6 volumes (v/w) of deionized water on the day of analysis. Proteins were precipitated from 10 µL plasma or 5 µL tissue homogenate with 200 µL ACN containing 100 ng/mL Tolbutamide as internal standard in 96-well plates. The mixture was vortexed for 2 min and centrifuged at 4000 rpm for 30 min at 4 °C. An aliquot of 150 µL supernatant was transferred to a 350-µL 96-well plate. 0.2 µL supernatant was injected for the UPLC–MS/MS analysis. Data were analyzed using MassLynx V4.1.
The pharmacokinetic parameters were calculated using the non-compartmental approach (Models 200 and 201) of the pharmacokinetic software Phoenix WinNonlin, version 6.4 (Certara, St. Louis, MO). The area under the plasma concentration vs time curve (AUC) was calculated using the linear trapezoidal method. The slope of the apparent terminal phase was estimated by log linear regression using at least three data points and the terminal rate constant (λ) was derived from the slope. AUC0–∞ was estimated as the sum of the AUC0–t (where t is the time of the last measurable concentration) and Ct/λ. The apparent terminal half-life (t½) was calculated as 0.693/λ.

[2] = test system: cleaved caspase 3; test: Cleaved caspase 3 immunohistochemistry in KPC tumors; format: in vivo, KPC mice; settings: 25 mg/kg by gavage (PO) for 14 days
Text: To arrive at markers driven by metarrestin exposure, we next subjected untreated and metarrestin-treated KPC tumors and matched normal pancreata to unbiased gene expression profiling using RNA-sEq. […] Thus, FOXA1 and FOXO6 may provide leads for future predictive biomarker development, assist in determination of the minimally efficacious dose, and add additional insight into the mechanism of action of metarrestin.
Suppl. Fig. 7. […] Nuclear cleaved caspase 3 expression levels in metarrestin-treated KPC tumors. Representative images of cleaved caspase 3 immunohistochemistry in tumors of KPC mice treated with vehicle (top) or 25mg/kg metarrestin for 14 days (bottom). Images 20×, inset 40×.

[3] = C57BL/6, mouse, liver, po, 3 mg/kg, 3 mg/kg PO single dose
[4] = C57BL/6, mouse, liver, po, 10 mg/kg, 10 mg/kg PO single dose
[5] = C57BL/6, mouse, liver, 3 mg/kg PO single dose
[6] = C57BL/6, mouse, liver, 10 mg/kg PO single dose
[7] = C57BL/6, mouse, plasma, 3 mg/kg IV single dose
[8] = C57BL/6, mouse, plasma, 3 mg/kg PO single dose
[9] = C57BL/6, mouse, plasma, 10 mg/kg PO single dose

Work on `N=c1c2c(-c3ccccc3)c(-c3ccccc3)n(Cc3ccccc3)c2ncn1[C@H]1CC[C@H](O)CC1` [metarrestin, Trans-4-(7-benzyl-4-imino-5,6-diphenyl-4,7-dihydro-3H-pyrrolo[2,3-d]pyrimidin-3-yl) cyclohexanol] yielded a Kp [1, 3] of over 50, a half-life [1, 3] of 4.7 h and a Kp [1, 4] of over 50. It also gave a half-life [1, 4] of 4.1 h, a half-life ([1]; C57BL/6, mouse, plasma, intravenous, oral, 10 mg/kg, low doses of 3 and 10 mg/kg, span over groups) of 5 to 5.6 h and a half-life ([1]; C57BL/6, mouse, plasma, iv, 3 mg/kg, 3 mg/kg IV single dose) of about 5 h. The half-life ([1]; C57BL/6, mouse, plasma, po, 3 mg/kg, 3 mg/kg PO single dose) was 5.4 h, the bioavailability ([1]; C57BL/6, mouse, plasma, po, 10 mg/kg, single oral dose 3 and 10 mg/kg via gavage) was over 80% and the half-life ([1]; C57BL/6, mouse, plasma, po, 10 mg/kg, 10 mg/kg PO single dose) was 5.6 h. The AUC(0-inf) [1, 5] was 68600 ng·h/mL, the Cmax [1, 5] was 5420 ng/mL and the Tmax [1, 5] was 1 h. The AUC(0-t) [1, 5] was 66100 ng·h/mL, the AUC(0-inf) [1, 6] was 281000 ng·h/mL and the Cmax [1, 6] was 21400 ng/mL. It also gave a Tmax [1, 6] of 2 h, an AUC(0-t) [1, 6] of 276000 ng·h/mL and an AUC(0-inf) [1, 7] of 1040 ng·h/mL. It also gave an AUC(0-t) [1, 7] of 1010 ng·h/mL, a clearance ([1]; C57BL/6, mouse, plasma, 3 mg/kg IV single dose, read-out: CLp (plasma clearance)) of 48 mL/min/kg and a Vd ([1]; C57BL/6, mouse, plasma, 3 mg/kg IV single dose, read-out: Vdss (steady-state volume of distribution)) of 17 L/kg. The AUC(0-inf) [1, 8] was 871 ng·h/mL, the Cmax [1, 8] was 55.7 ng/mL and the Tmax [1, 8] was 2 h. It also gave an AUC(0-t) [1, 8] of 823 ng·h/mL, an AUC(0-inf) [1, 9] of 4790 ng·h/mL and a Cmax [1, 9] of 349 ng/mL. The Tmax [1, 9] was 2 h, the AUC(0-t) [1, 9] was 4520 ng·h/mL and the “t 1/2” value ([1]; plasma, 3 mg/kg IV single dose, 3 mg/kg) was 5 h. The “cell death in KPC tumors (nuclear cleaved caspase 3)” value [2] was “does not induce cell death”.
